Data taken from patent US11149035B2, “Chemical compounds as H—PGDS inhibitors” (GlaxoSmithKline Intellectual Property Development Limited, priority 2017, dated 2021).

Target: T1, haematopoietic prostaglandin D synthase (H-PGDS) (Homo sapiens, UniProt O60760)
T1 construct: Full length human H-PGDS cDNA (Invitrogen Ultimate ORF IOH13026) was amplified by PCR; 6-His (N); TEV protease cleavage site (N); made in house; host or cells: E. coli BL21 (DE3*)
Assay: H-PGDS RapidFire high throughput mass spectrometry assay (conversion of PGH2 to PGD2)
Type: biochemical
Settings: 10 nM H-PGDS, PGH2 formed in situ by COX-2 from arachidonic acid; four parameter curve fit; read-out: Potency Range (mean pIC50) (converted)
Description: The H-PGDS RapidFire™ mass spectrometric assay monitors conversion of prostaglandin H2 (PGH2) to prostaglandin D2 (PGD2) by haematopoietic prostaglandin D synthase (H-PGDS). In the assay format described here, the substrate (PGH2) is formed in situ by the action of cyclooxygenase-2 on arachidonic acid. This first step is set up to be fast, and generates a burst of PGH2 at ˜10 μM. The PGH2 is then further converted to PGD2 by the H-PGDS enzyme. […] Plates are then read on the RapidFire™ high throughput solid phase extraction system (Agilent) which incorporates a solid phase extraction step coupled to a triple quadrupole mass spectrometer (AB SCIEX). Relative levels of PGD2 and PGF2α, which acts as a surrogate for substrate, are measured and a percent conversion calculated. Inhibitors are characterised as compounds which lower the conversion of PGH2 to PGD2.
Full length human H-PGDS cDNA (Invitrogen Ultimate ORF IOH13026) was amplified by PCR with the addition of a 5′ 6-His tag and TEV protease cleavage site. The PCR product was digested with NdeI and XhoI and ligated into pET22b+ (Merck Novagen®). Expression was carried out in E. coli strain BL21 (DE3*) using auto-induction Overnight Express™ Instant TB medium (Merck Novagen®) supplemented with 1% glycerol. The culture was first grown at 37° C. and the temperature was reduced to 25° C. when OD600 reached 2.0. Cells were harvested by centrifugation after a further 18 hours. 10 g of E. coli cell pellet was suspended to a total volume of 80 mL in lysis buffer (20 mM Tris-Cl pH 7.5, 300 mM NaCl, 20 mM imidazole, 5 mM β-mercaptoethanol, 10% glycerol). 1 mg/mL protease inhibitors (Protease Inhibitor Cocktail Set III, Merck Calbiochem®) and 1 mg/mL lysozyme were added to the cell suspension. The suspension was then sonicated for 5 min (UltraSonic Processor VCX 750, Cole-Parmer Instrument Co.) with a micro probe (50% amplitude, 10 sec on/off) and then centrifuged at 100,000 g for 90 minutes (at 4° C.). The supernatant was loaded onto a Ni-NTA HiTrap column (5 mL, GE Healthcare, pre-equilibrated in lysis buffer). The column was washed with 10 column volumes of lysis buffer and eluted with lysis buffer containing 500 mM imidazole. The pooled protein peak fractions were concentrated using a 10 kDa centrifugal filter at 3500 g and 4° C. (Amicon Ultra-15 centrifugal filter unit with Ultracel-10 membrane from Millipore). Further purification of the concentrated protein was carried out using gel filtration chromatography on a HiLoad 26/600 Superdex 75 preparative grade column (GE Healthcare Life Sciences) using 50 mM Tris pH 7.5, 50 mM NaCl, 1 mM dithiothreitol, 1 mM MgCl2. Fractions containing the protein were pooled, concentrated as described above, and stored at −80° C.
The full length human COX-2 gene (accession number L15326) was amplified by PCR to generate an EcoRI—HindIII fragment containing an in-frame FLAG tag. This was subcloned into pFastBac 1 (Invitrogen). The COX-2 FLAG plasmid was recombined into the baculovirus genome according to the BAC-to-BAC protocol described by Invitrogen. Transfection into Spodoptera frugiperda (Sf9) insect cells was performed using Cellfectin (Invitrogen), according to the manufacturer's protocol. Super Sf9 cells were cultured in EX420 media (SAFC Biosciences) to a density of approximately 1.5×10^6 cells/mL within a wave bioreactor. Recombinant virus was added at a Multiplicity of Infection (MOI) of 5 and the culture was allowed to continue for 3 days. Cells were harvested using a continuous feed centrifuge run at 2500 g at a rate of approximately 2 L/min with cooling. The resultant cell slurry was re-centrifuged in pots (2500 g, 20 min, 4° C.) and the cell paste was stored at −80° C. 342 g of cell paste was re-suspended to a final volume of 1600 mL in a buffer of 20 mM Tris-Cl pH 7.4, 150 mM NaCl, 0.1 mM EDTA, 1.3% w/v n-octyl-[…] containing 20 Complete EDTA-free Protease Inhibitor Cocktail tablets (Roche Applied Science). […]

T1 sequence (O60760 whole entry): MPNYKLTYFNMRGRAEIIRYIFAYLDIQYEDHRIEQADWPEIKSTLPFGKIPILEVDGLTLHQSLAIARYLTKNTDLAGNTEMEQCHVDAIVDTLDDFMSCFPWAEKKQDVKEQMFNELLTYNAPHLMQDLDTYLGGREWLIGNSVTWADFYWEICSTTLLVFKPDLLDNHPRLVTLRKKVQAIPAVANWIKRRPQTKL

| Structure (SMILES) | IC50 |
| --- | --- |
| O=C(N[C@H]1C[C@](O)(C(F)(F)F)C1)c1cnc2nc(C3CC3)ccc2c1 [Example 53, 7-cyclopropyl-N-((1s,3s)-3-hydroxy-3-(trifluoromethyl)cyclobutyl)-1,8-naphthyridine-3-carboxamide] | 100 to 1000 nM |
| O=C(N[C@H]1CC[C@H](N2CC(F)(F)C2)CC1)c1cnc2nc(C3CC3)ccc2c1 [Example 54, 7-Cyclopropyl-N-(trans-4-(3,3-difluoroazetidin-1-yl)cyclohexyl)-1,8-naphthyridine-3-carboxamide] | 10 to 79.4 nM |
| CC(C)(O)[C@H]1CC[C@H](NC(=O)c2cnc3nc(OCC(F)(F)F)ccc3c2)CC1 [Example 55, N-(trans-4-(2-Hydroxypropan-2-yl)cyclohexyl)-7-(2,2,2-trifluoroethoxy)-1,8-naphthyridine-3-carboxamide] | 100 to 1000 nM |
| CCOc1ccc2cc(C(=O)N[C@H]3CC[C@H](C(C)(C)O)CC3)cnc2n1 [Example 56, 7-Ethoxy-N-(trans-4-(2-hydroxypropan-2-yl)cyclohexyl)-1,8-naphthyridine-3-carboxamide] | 10 to 79.4 nM |
| C[C@H]1CCN1c1nc2ncc(C(=O)N[C@H]3CC[C@H](C(C)(C)O)CC3)cc2cc1Cl [Example 58, 6-Chloro-N-(trans-4-(2-hydroxypropan-2-yl)cyclohexyl)-7-((S)-2-methylazetidin-1-yl)-1,8-naphthyridine-3-carboxamide] | < 10 nM |
| C[C@H]1CCN1c1nc2ncc(C(=O)N[C@H]3CC[C@](C)(O)CC3)cc2cc1Cl [Example 59, 6-Chloro-N-((1r,4s)-4-hydroxy-4-methylcyclohexyl)-7-((S)-2-methylazetidin-1-yl)-1,8-naphthyridine-3-carboxamide] | < 10 nM |
| C[C@H]1CCN1c1nc2ncc(C(=O)N[C@H]3CCNC3=O)cc2cc1Cl [Example 60, 6-Chloro-7-((S)-2-methylazetidin-1-yl)-N—((S)-2-oxopyrrolidin-3-yl)-1,8-naphthyridine-3-carboxamide] | < 10 nM |
| C[C@H]1CCN1c1nc2ncc(C(=O)NC3CC4(C3)CC(C(C)(C)O)C4)cc2cc1Cl (stereo partly drawn) [Example 61, (S)-6-Chloro-N-(6-(2-hydroxypropan-2-yl)spiro[3.3]heptan-2-yl)-7-(2-methylazetidin-1-yl)-1,8-naphthyridine-3-carboxamide] | < 10 nM |
| COc1nc2ncc(C(=O)N[C@H]3CC[C@H](C(C)(C)O)CC3)cc2cc1Cl [Example 62, 6-Chloro-N-(trans-4-(2-hydroxypropan-2-yl)cyclohexyl)-7-methoxy-1,8-naphthyridine-3-carboxamide] | < 10 nM |
| C[C@H]1CCN1c1nc2ncc(C(=O)N[C@H]3C[C@@](C)(O)C3)cc2cc1Cl [Example 63, 6-chloro-N-((1s,3R)-3-hydroxy-3-methylcyclobutyl)-7-((S)-2-methylazetidin-1-yl)-1,8-naphthyridine-3-carboxamide] | < 10 nM |
| C[C@H]1CCN1c1nc2ncc(C(=O)N[C@H]3C[C@](C)(O)C3)cc2cc1Cl [Example 64, 6-Chloro-N-((1r,3S)-3-hydroxy-3-methylcyclobutyl)-7-((S)-2-methylazetidin-1-yl)-1,8-naphthyridine-3-carboxamide] | < 10 nM |
| C[C@H]1CCN1c1nc2ncc(C(=O)N[C@H]3C[C@H](C(C)(C)O)C3)cc2cc1Cl [Example 65, 6-Chloro-N-(trans-3-(2-hydroxypropan-2-yl)cyclobutyl)-7-((S)-2-methylazetidin-1-yl)-1,8-naphthyridine-3-carboxamide] | < 10 nM |
| C[C@H]1CCN1c1nc2ncc(C(=O)N[C@H]3C[C@](O)(C(F)(F)F)C3)cc2cc1Cl [Example 66, 6-Chloro-N-((1s,3R)-3-hydroxy-3-(trifluoromethyl)cyclobutyl)-7-((S)-2-methylazetidin-1-yl)-1,8-naphthyridine-3-carboxamide] | < 10 nM |
| C[C@@H]1CNC(=O)[C@H]1NC(=O)c1cnc2nc(N3CC[C@@H]3C)c(Cl)cc2c1 [Example 67, 6-Chloro-N-((3S,4R)-4-methyl-2-oxopyrrolidin-3-yl)-7-((S)-2-methylazetidin-1-yl)-1,8-naphthyridine-3-carboxamide] | < 10 nM |
| O=C(N[C@H]1C[C@@H](N[C@H](CO)C(F)(F)F)C1)c1cnc2nc(C3CC3)ccc2c1 [Example 68, 7-Cyclopropyl-N-(cis-3-(((R)-1,1,1-trifluoro-3-hydroxypropan-2-yl)amino)cyclobutyl)-1,8-naphthyridine-3-carboxamide] | 100 to 1000 nM |
| O=C(N[C@H]1C[C@H](N[C@H](CO)C(F)(F)F)C1)c1cnc2nc(C3CC3)ccc2c1 [Example 69, 7-Cyclopropyl-N-(trans-3-(((R)-1,1,1-trifluoro-3-hydroxypropan-2-yl)amino)cyclobutyl)-1,8-naphthyridine-3-carboxamide] | 10 to 79.4 nM |
| CSc1ncc2cc(C(=O)N[C@H]3CC[C@H](C(C)(C)O)CC3)cnc2n1 [Example 70, N-(trans-4-(2-Hydroxypropan-2-yl)cyclohexyl)-2-(methylthio)pyrido[2,3-d]pyrimidine-6-carboxamide] | < 10 nM |
| O=C(N[C@H]1CCNC1=O)c1cnc2nc(C3CC3)c(Cl)cc2c1 [Example 71, (S)-6-Chloro-7-cyclopropyl-N-(2-oxopyrrolidin-3-yl)-1,8-naphthyridine-3-carboxamide] | < 10 nM |
| CC(C)(O)[C@H]1CC[C@H](NC(=O)c2cnc3nc(C4CCC4)ccc3c2)CC1 [Example 72, 7-Cyclobutyl-N-(trans-4-(2-hydroxypropan-2-yl)cyclohexyl)-1,8-naphthyridine-3-carboxamide] | 10 to 79.4 nM |
| CC(C)(O)[C@H]1C[C@H](NC(=O)c2cnc3nc(C4CC4)c(Cl)cc3c2)C1 [Example 73, 6-Chloro-7-cyclopropyl-N-(trans-3-(2-hydroxypropan-2-yl)cyclobutyl)-1,8-naphthyridine-3-carboxamide] | < 10 nM |
| C[C@]1(O)CC[C@H](NC(=O)c2cnc3nc(C4CC4)c(Cl)cc3c2)CC1 [Example 74, 6-Chloro-7-cyclopropyl-N-((1r,4r)-4-hydroxy-4-methylcyclohexyl)-1,8-naphthyridine-3-carboxamide ethyl acetate solvate] | < 10 nM |
| C[C@]1(O)C[C@H](NC(=O)c2cnc3nc(C4CC4)c(Cl)cc3c2)C1 [Example 75, 6-Chloro-7-cyclopropyl-N-((1r,3r)-3-hydroxy-3-methylcyclobutyl)-1,8-naphthyridine-3-carboxamide] | 10 to 79.4 nM |
| C[C@]1(O)C[C@@H](NC(=O)c2cnc3nc(C4CC4)c(Cl)cc3c2)C1 [Example 76, 6-Chloro-7-cyclopropyl-N-((1s,3s)-3-hydroxy-3-methylcyclobutyl)-1,8-naphthyridine-3-carboxamide] | < 10 nM |
| O=C(N[C@H]1C[C@](O)(C(F)(F)F)C1)c1cnc2nc(C3CC3)c(Cl)cc2c1 [Example 77, 6-Chloro-7-cyclopropyl-N-((1s,3s)-3-hydroxy-3-(trifluoromethyl)cyclobutyl)-1,8-naphthyridine-3-carboxamide] | < 10 nM |
| C[C@H]1CCN1c1cc2ncc(C(=O)N[C@@H]3C(=O)NCC3(C)C)cc2cn1 [Example 78, N—((S)-4,4-Dimethyl-2-oxopyrrolidin-3-yl)-7-((S)-2-methylazetidin-1-yl)-1,6-naphthyridine-3-carboxamide] | 100 to 1000 nM |
